Holding throughout (assay type): cell-based, Hepatitis C virus (HCV)
The target in experiment [1] is Con1-2bM31I. Briefly: β-lactamase reporter replicon assay, Con1-2bM31I chimeric replicon. The following applies: Con1-2bM31I replicon in MR2 (Huh7 derived) cells, two days with drug, percent of DMSO control, 4 parameter fit. As to the method: (§1) Selection of persistently replication cells lines expressing β-lactamase, using bla:2b chimeric replicons each harboring a different mutation (N24S, M31I, I392L) defined in the Neo^r selection studies described above, was performed in the enhanced replication Huh7 derived cell line MR2. (Murray et al., J. of Virology, 77:2928-2935, 2003.) To generate RNA for transfection, plasmids were linearized by digestion of an XbaI site distal to the replicon sequences. RNA was generated using MEGAscript™ (Ambion, Austin, Tex.) and quantitated by UV absorbance.
(§2) MR2 was maintained in Dulbecco's modified Eagle's medium (DMEM) supplemented with 10% fetal bovine serum, nonessential amino acids, 2 mM GlutaMAX, and Penn/Strep (Invitrogen Corp., Carlsbad, Calif.). Cells were seeded the night prior to transfection at a density of 300,000 cells per well in a 6-well dish. A mixture of 5 μg RNA, 12 μl of DMRE-C (Invitrogen Corp., Carlsbad, Calif.), and 2 ml of Opti-Mem (Invitrogen Corp., Carlsbad, Calif.) media was prepared and allowed to sit for 10 minutes. During this time media was removed from the MR2 cells, cells were washed once with Opti-Mem, then the RNA:DMRE-C mixture was added dropwise, and incubated for ˜8 hours. Transfection media was removed by aspiration, and replaced with 2 ml DMEM.

The target in experiment [2] is BK-2bM31I. Briefly: β-lactamase reporter replicon assay, BK-2bM31I chimeric replicon. The following applies: BK-2bM31I replicon in MR2 (Huh7 derived) cells, two days with drug, percent of DMSO control, 4 parameter fit. As to the method:
as §1, §2

Experiment [3] addresses BK NS5a268S-2bN24S. The experiment in a line: β-lactamase reporter replicon assay, BK NS5a268S-2bN24S chimeric replicon. The following applies: BK NS5a268S-2bN24S replicon. On the procedure:
(§3) Selection of persistently replication cells lines expressing β-lactamase, using bla:2b chimeric replicons each harboring a different mutation (N24S, M31I, I392L) defined in the Neo^r selection studies described above, was performed in the enhanced replication Huh7 derived cell line MR2. (Murray et al., J. of Virology, 77:2928-2935, 2003.) To generate RNA for transfection, plasmids were linearized by digestion of an XbaI site distal to the replicon sequences. RNA was generated using MEGAscript™ (Ambion, Austin, Tex.) and quantitated by UV absorbance. […]
(§4) The next morning cells were expanded into two T75 flasks and grown for an additional three days. A duplicate well for each replicon construct was analyzed for β-lactamase activity to verify that the transfection efficiency was >90%.
(§5) On day 4 cells from one flask were collected, counted, and seeded into a 96 well Cytostar plate at a density of 7,500 cells/well in the presence of 1 μM clavulonic acid. […] Simultaneously, the other flasks were analyzed for β-lactamase activity to verify both that activity from a non-replicating control sub-genomic replicon was undetectable, and establish the day 4 replication activity of the test replicons. […] Cells with drug were incubated for two days, and analyzed as described in Example 4. […]
(Replicon systems follow genome replication, usually without infectious particles.)

The target in experiment [4] is BK-2b N24S/L392I. Briefly: β-lactamase reporter replicon assay, BK-2b N24S/L392I chimeric replicon. The following applies: BK-2b N24S/L392I replicon. On the procedure:
as §3, §4, §5

Experiment [5] deals with bk:2B bla chimeric replicon bearing change at residue 24. Briefly: β-lactamase reporter replicon assay, bk:2B bla chimeric replicon with change at residue 24. The following applies: at the EC95 for 2′C-methyladenosine; replicon not robust enough for IC50 determination. On the procedure: as §1
(§6) On day 4 cells from one flask were collected, counted, and seeded into a 96 well Cytostar plate at a density of 7,500 cells/well in the presence of 1 μM clavulonic acid. […] Simultaneously, the other flasks were analyzed for β-lactamase activity to verify both that activity from a non-replicating control sub-genomic replicon was undetectable, and establish the day 4 replication activity of the test replicons. […] Cells with drug were incubated for two days, and analyzed as described in Example 4.
(§7) Medium was removed by aspiration and cells were stained for 2 hours with CCF4-AM (Invitrogen Corp., Carlsbad, Calif.) in DMEM supplemented with 25 mM HEPES, pH 8.0. Fluorescence due to β-lactamase activity was measured through excitation at 405 nm, followed by measurement of the emission at 460 nm using a CytoFluor 4000 fluorescence plate reader. […]

Experiment [6] has as its system bk:2B bla chimeric replicon bearing change at residue 392. Briefly: β-lactamase reporter replicon assay, bk:2B bla chimeric replicon with change at residue 392. The following applies: at the EC95 for 2′C-methyladenosine; replicon not robust enough for IC50 determination. On the procedure: as §1, §6, §7

pEC50: −log10 of the molar value.

One may read the pEC50 as the negative decadic logarithm of the EC50, by convention in mol/L.

In the case of `C[C@@]1(O)[C@H](O)[C@@H](CO)O[C@H]1n1cnc2c(N)ncnc21` [2′C-methyladenosine], the pEC50 was 6.39 in experiment [1], 6.18 in experiment [2], 6.01 in experiment [3] and 6.73 in experiment [4]. Moreover, the “inhibition of limited replication” value in experiment [5] and in experiment [6] was “could be inhibited” in each case.

(Values after patent publication US8354518B2, “HCV replicons containing NS5B from genotype 2B” (Merck Sharp & Dohme Corp., priority 2003, dated 2013).)
